How the values were obtained:
[1] = biological target: T1, JAK3/JAK1 (Homo sapiens, UniProt P23458+P52333); test: Inhibition of JAK1/JAK3 in human primary T-cells assessed as reduction of IL-2 stimulated STAT5 phosphorylation preincubated for 1 hr followed by IL-2 stimulation for 15 mins by FACS method; format: cell-based, T-cell
[2] = Inhibition of IL-2 stimulated IFN-gamma production in BALB/c mouse at 40 mg/kg, po pretreated for 30 mins followed by IL-2 stimulation and measured after 4 hrs by ELISA; format: functional; conditions: time 4.5 hrs
[3] = Oral bioavailability in Sprague-Dawley rat 5 mg/kg; format: ADME, organism-based; conditions: in vivo
[4] = biological target: T2, Tyrosine-protein kinase JAK2 (Homo sapiens, UniProt O60674); test: Inhibition of JAK2 signaling pathway in human CHEP cells assessed as inhibition of EPO-induced cell survival preincubated for 1 hr followed by EPO addition and measured after 48 hrs by CellTiter-Glo luminescent assay; format: toxicity, cell-based
[5] = biological target: T3, Cytochrome P450 3A4 (Homo sapiens, UniProt P08684); test: Inhibition of CYP3A4 (unknown origin) in absence of NADPH; format: ADME
[6] = biological target: T3, Cytochrome P450 3A4; test: Inhibition of CYP3A4 (unknown origin) in presence of NADPH; format: ADME
[7] = Inhibition of IL-2 stimulated IFN-gamma production in BALB/c mouse at 5 mg/kg, po pretreated for 30 mins followed by IL-2 stimulation and measured after 4 hrs by ELISA; format: functional; conditions: time 4.5 hrs
[8] = biological target: T4, Cytochrome P450 1A2 (Homo sapiens, UniProt P05177); test: Inhibition of CYP1A2 (unknown origin); format: ADME
T4 sequence (P05177 whole entry): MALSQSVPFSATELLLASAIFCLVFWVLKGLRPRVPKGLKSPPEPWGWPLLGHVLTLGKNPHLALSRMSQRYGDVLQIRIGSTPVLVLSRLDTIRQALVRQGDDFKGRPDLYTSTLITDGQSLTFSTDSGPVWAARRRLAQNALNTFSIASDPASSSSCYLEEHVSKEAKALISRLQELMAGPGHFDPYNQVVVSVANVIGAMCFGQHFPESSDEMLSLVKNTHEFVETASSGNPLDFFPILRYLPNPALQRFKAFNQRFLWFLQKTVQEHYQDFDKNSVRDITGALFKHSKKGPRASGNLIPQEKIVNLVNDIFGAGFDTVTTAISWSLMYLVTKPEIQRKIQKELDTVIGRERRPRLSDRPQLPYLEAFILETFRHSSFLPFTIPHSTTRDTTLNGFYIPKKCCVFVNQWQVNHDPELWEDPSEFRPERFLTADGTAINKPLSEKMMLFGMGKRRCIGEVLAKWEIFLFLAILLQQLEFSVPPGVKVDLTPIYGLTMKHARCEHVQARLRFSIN

[9] = biological target: Tyrosine-protein kinase JAK1 (Homo sapiens, UniProt P23458); test: Inhibition of human recombinant GST-tagged JAK1 catalytic domain (866 to 1154 residues) expressed in baculovirus expression system by Z'-lyte assay
[10] = biological target: T2, Tyrosine-protein kinase JAK2; test: Inhibition of human recombinant GST-tagged JAK2 catalytic domain (809 to 1153 residues) expressed in baculovirus expression system by Z'-lyte assay; format: toxicity
[11] = biological target: T5, Tyrosine-protein kinase JAK3 (Homo sapiens, UniProt P52333); test: Inhibition of human recombinant GST-tagged JAK3 catalytic domain (781 to 1124 residues) expressed in baculovirus expression system by Z'-lyte assay
T5 sequence (P52333 whole entry): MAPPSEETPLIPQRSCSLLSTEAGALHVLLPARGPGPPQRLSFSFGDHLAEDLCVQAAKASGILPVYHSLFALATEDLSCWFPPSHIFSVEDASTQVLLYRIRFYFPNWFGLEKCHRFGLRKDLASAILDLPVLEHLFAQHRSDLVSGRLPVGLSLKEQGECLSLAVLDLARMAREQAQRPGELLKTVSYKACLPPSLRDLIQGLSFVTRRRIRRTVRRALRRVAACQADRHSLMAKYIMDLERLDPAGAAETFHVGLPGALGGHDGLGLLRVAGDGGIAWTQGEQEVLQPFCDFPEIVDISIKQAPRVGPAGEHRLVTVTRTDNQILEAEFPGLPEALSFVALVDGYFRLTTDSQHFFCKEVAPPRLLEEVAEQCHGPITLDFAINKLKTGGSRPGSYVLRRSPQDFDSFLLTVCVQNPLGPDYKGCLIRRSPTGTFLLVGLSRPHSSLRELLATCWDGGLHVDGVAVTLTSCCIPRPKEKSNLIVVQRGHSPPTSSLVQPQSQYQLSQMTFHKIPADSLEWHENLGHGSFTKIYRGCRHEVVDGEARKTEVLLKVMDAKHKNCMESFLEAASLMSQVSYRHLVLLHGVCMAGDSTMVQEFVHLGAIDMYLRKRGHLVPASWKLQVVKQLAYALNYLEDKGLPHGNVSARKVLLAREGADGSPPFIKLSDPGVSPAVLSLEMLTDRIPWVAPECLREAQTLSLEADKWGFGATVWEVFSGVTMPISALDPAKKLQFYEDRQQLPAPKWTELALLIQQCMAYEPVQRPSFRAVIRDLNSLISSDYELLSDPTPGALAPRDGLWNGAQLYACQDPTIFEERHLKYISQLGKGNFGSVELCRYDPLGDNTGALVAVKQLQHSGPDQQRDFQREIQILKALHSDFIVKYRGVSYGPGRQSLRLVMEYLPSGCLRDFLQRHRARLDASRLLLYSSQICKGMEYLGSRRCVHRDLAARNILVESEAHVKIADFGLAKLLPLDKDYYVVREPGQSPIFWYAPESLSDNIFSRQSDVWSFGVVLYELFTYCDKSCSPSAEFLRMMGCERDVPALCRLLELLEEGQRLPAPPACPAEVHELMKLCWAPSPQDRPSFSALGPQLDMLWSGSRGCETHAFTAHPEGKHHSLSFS

[12] = biological target: Non-receptor tyrosine-protein kinase TYK2 (Homo sapiens, UniProt P29597); test: Inhibition of human recombinant N-terminal GST-tagged TYK2 (833 to 1187 residues) expressed in baculovirus expression system by Z'-lyte assay
[13] = biological target: T1, JAK3/JAK1; test: Inhibition of JAK1/JAK3 signaling pathway in human primary T-cells assessed as reduction of IL-2 induced cell proliferation; format: cell-based
[14] = biological target: JAK1/TYK2 (Homo sapiens, UniProt P23458+P29597); test: Inhibition of JAK1/TYK2 signaling pathway in human primary T-cells assessed as reduction of IFN-alpha induced STAT1 phosphorylation; format: cell-based, T-cell
[15] = biological target: T2, Tyrosine-protein kinase JAK2; test: Inhibition of JAK2 signaling pathway in human UKE-1 cells assessed as reduction of cell proliferation; format: toxicity, cell-based
[16] = biological target: JAK2/TYK2 (Homo sapiens, UniProt O60674+P29597); test: Inhibition of JAK2/TYK2 signaling pathway in human primary T-cells assessed as reduction of IL-12 induced STAT4 phosphorylation; format: cell-based, T-cell
[17] = biological target: JAK2/JAK1 (Homo sapiens, UniProt O60674+P23458); test: Inhibition of JAK1/JAK2 signaling pathway in human U-937 cells assessed as reduction of IFN-gamma induced ICAM1 expression; format: cell-based
[18] = Inhibition of IL-2 stimulated IFN-gamma production in BALB/c mouse at 20 mg/kg, po pretreated for 30 mins followed by IL-2 stimulation and measured after 4 hrs by ELISA; format: functional; conditions: time 4.5 hrs
[19] = Inhibition of IL-2 stimulated IFN-gamma production in BALB/c mouse at 10 mg/kg, po pretreated for 30 mins followed by IL-2 stimulation and measured after 4 hrs by ELISA; format: functional; conditions: time 4.5 hrs
[20] = Inhibition of IL-2 stimulated IFN-gamma production in BALB/c mouse at 2.5 mg/kg, po pretreated for 30 mins followed by IL-2 stimulation and measured after 4 hrs by ELISA; format: functional; conditions: time 4.5 hrs
[21] = Clearance in Sprague-Dawley rat 1 mg/kg, iv; format: ADME, organism-based; conditions: in vivo
[22] = biological target: T1, JAK3/JAK1; test: Inhibition of JAK1/JAK3 signaling pathway in human whole blood assessed as reduction of IL-2 induced STAT5 phosphorylation; format: tissue-based
[23] = biological target: Tyrosine-protein kinase SYK (Homo sapiens, UniProt P43405); test: Inhibition of SYK (unknown origin) assessed as reduction of IgM-stimulated ERK phosphorylation by Cell-based assay

T3 sequence (P08684 whole entry): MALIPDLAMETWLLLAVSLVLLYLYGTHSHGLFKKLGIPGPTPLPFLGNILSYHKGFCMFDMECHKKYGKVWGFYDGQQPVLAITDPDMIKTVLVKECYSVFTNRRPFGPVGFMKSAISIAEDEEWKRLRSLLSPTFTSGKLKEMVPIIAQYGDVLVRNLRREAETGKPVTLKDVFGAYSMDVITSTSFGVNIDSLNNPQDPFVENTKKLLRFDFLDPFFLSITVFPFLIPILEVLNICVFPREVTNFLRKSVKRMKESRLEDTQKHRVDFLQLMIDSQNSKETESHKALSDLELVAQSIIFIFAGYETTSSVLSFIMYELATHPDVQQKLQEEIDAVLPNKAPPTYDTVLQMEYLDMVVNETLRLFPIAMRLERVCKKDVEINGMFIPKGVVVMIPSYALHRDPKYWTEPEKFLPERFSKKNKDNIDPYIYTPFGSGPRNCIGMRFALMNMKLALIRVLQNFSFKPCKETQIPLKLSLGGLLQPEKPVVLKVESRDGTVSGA
T1 sequence (P23458 whole entry, one chain of several): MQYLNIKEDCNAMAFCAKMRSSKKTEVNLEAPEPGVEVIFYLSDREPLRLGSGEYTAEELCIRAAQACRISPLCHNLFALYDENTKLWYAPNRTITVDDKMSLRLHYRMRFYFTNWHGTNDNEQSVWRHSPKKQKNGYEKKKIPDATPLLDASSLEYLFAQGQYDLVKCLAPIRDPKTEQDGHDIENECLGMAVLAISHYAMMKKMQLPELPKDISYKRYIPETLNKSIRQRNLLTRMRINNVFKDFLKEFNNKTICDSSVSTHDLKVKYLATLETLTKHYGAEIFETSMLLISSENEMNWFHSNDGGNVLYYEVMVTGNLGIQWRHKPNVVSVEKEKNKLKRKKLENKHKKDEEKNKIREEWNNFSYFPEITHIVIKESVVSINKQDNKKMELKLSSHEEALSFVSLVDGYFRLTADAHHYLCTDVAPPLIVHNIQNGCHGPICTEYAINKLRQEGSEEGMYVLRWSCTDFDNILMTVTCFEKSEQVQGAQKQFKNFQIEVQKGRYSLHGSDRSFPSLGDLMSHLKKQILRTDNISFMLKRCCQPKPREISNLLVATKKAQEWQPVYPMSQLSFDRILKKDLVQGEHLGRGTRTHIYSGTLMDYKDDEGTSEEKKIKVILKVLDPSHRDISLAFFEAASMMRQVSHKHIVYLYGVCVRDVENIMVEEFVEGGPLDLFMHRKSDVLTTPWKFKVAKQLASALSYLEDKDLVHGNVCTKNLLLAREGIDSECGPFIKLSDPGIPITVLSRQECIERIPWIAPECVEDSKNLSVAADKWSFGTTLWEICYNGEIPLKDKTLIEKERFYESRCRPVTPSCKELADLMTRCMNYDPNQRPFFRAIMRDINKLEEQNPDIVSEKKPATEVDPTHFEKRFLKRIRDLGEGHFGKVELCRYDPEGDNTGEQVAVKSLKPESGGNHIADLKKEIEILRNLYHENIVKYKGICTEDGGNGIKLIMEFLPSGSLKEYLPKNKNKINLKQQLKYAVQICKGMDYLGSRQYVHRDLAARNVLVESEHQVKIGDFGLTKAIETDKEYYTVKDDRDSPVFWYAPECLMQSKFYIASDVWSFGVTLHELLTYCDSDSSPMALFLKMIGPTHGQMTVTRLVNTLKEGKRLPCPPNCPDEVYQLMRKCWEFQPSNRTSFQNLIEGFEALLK
T2 sequence (O60674 whole entry): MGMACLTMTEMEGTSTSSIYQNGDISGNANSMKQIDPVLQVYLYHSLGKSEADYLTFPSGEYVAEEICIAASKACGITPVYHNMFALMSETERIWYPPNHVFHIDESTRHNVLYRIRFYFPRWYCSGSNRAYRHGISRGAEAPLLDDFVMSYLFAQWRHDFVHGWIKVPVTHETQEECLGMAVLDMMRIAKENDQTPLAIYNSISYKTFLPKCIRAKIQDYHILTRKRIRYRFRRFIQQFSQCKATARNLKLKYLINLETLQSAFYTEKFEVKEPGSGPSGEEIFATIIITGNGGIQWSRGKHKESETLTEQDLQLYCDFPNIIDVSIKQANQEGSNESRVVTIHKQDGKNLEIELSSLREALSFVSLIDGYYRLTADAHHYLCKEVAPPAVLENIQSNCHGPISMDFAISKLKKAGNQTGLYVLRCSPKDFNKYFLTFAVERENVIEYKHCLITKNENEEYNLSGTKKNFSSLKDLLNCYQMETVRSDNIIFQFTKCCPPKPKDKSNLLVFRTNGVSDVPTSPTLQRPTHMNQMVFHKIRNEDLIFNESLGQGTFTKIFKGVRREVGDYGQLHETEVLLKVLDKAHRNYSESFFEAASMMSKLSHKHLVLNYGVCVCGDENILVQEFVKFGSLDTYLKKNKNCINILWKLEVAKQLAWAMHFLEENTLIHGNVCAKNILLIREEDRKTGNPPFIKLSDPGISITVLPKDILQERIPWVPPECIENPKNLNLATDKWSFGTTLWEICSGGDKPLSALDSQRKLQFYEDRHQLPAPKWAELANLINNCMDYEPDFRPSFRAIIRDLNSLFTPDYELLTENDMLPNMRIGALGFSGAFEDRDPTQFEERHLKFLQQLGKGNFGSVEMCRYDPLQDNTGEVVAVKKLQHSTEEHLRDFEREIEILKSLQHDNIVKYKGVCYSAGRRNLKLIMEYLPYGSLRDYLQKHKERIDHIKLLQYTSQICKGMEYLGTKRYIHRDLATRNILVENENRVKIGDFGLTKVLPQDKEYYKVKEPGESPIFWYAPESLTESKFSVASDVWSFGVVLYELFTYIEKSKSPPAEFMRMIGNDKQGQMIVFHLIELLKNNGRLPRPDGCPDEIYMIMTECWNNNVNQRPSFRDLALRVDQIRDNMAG
Chain of Tyrosine-protein kinase JAK1 (P23458 whole entry, the tested form may be a part): as the sequence (P23458 whole entry, one chain of several) above
Chain of JAK2/JAK1 (P23458 whole entry): as the sequence (P23458 whole entry, one chain of several) above
Chain of JAK2/JAK1 (O60674 whole entry): as the sequence (O60674 whole entry) above
Chain of JAK1/TYK2 (P23458 whole entry): as the sequence (P23458 whole entry, one chain of several) above
Chain of JAK1/TYK2 (P29597 whole entry): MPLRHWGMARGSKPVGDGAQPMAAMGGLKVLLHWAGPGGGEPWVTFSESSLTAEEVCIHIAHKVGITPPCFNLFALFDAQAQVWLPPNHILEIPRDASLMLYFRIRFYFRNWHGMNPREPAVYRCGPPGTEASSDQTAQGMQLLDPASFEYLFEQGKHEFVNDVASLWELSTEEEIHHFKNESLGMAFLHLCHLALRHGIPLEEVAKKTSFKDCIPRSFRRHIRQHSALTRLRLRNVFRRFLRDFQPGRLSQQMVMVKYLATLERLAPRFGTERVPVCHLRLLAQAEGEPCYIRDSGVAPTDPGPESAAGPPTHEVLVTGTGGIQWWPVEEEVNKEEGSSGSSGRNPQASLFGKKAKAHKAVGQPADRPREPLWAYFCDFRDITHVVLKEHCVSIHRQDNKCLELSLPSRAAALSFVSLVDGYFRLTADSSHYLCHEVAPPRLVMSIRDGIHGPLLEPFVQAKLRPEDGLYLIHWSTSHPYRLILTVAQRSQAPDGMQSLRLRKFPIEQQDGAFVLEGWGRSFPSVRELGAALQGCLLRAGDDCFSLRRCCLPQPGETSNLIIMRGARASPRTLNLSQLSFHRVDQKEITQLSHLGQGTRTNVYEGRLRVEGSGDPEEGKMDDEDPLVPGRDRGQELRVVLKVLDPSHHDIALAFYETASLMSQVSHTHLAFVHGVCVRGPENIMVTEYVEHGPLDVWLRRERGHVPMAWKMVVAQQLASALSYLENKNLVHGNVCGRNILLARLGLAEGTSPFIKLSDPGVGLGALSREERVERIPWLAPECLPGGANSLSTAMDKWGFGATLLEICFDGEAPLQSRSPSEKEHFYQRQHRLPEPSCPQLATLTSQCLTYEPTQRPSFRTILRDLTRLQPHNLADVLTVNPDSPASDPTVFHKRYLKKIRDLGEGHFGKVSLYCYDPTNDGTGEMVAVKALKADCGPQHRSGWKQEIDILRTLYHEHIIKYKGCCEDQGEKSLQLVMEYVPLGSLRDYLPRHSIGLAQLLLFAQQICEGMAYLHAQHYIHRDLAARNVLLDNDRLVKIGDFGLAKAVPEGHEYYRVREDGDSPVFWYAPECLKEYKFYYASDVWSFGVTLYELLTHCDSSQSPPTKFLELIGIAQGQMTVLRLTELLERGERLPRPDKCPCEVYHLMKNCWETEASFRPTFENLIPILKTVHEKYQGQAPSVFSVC
Chain of JAK2/TYK2 (O60674 whole entry): as the sequence (O60674 whole entry) above
Chain of JAK2/TYK2 (P29597 whole entry): as the sequence (P29597 whole entry) above
Chain of Non-receptor tyrosine-protein kinase TYK2 (P29597 whole entry, the tested form may be a part): as the sequence (P29597 whole entry) above

Compound | IC50 [5] | IC50 [6] | inhibition in vivo at 40 mg/kg [2] | IC50 [4] | other results
Cc1cnc(Nc2ccc(N3CCOCC3)nc2)nc1Nc1ccc2oc(=O)[nH]c2c1 |  |  | 36% |  | IC50 [1]: 22 nM; bioavailability [3]: < 1%
Cc1cnc(Nc2ccc(C#N)cc2)nc1Nc1ccc2oc(=O)[nH]c2c1 |  |  | 0% |  | 
Cc1cnc(Nc2cccc(C#N)c2)nc1Nc1ccc2oc(=O)[nH]c2c1 |  |  | 1% |  | 
Cc1cnc(Nc2cccc(S(N)(=O)=O)c2)nc1Nc1ccc2c(c1)NC(=O)CO2 |  |  |  |  | IC50 [23]: 700 nM
Cc1cnc(Nc2ccc(NS(C)(=O)=O)cc2)nc1Nc1ccc2oc(=O)[nH]c2c1 |  |  | 8% |  | 
Cc1cnc(Nc2cccc(NS(C)(=O)=O)c2)nc1Nc1ccc2oc(=O)[nH]c2c1 |  |  | 15% |  | 

The next lines start with results.

IC50 [5] | IC50 [6] | Compound | inhibition in vivo at 40 mg/kg [2] | IC50 [4] | other results
> 10000 nM | 8000 nM | COc1cc(CF)cc(Nc2ncc(C)c(Nc3ccc4oc(=O)[nH]c4c3)n2)c1 |  | 170 nM | 
7200 nM | 500 nM | COc1cc(Nc2ncc(C)c(Nc3ccc4oc(=O)[nH]c4c3)n2)cc(C(F)(F)F)c1 | 90% | 1690 nM | inhibition in vivo at 5 mg/kg [7]: 78%
> 10000 nM | 700 nM | Cc1cnc(Nc2ccc(F)c(C(F)(F)F)c2)nc1Nc1ccc2oc(=O)[nH]c2c1 |  | 503 nM | 
4800 nM | 400 nM | COc1ccc(Nc2ncc(C)c(Nc3ccc4oc(=O)[nH]c4c3)n2)cc1C(F)(F)F | 32% | 1980 nM | 
> 10000 nM | > 10000 nM | COc1cc(Nc2ncc(C)c(Nc3ccc4oc(=O)[nH]c4c3)n2)cc(C)c1F [IFIDANCITINIB] | 92% | 490 nM | IC50 [1]: 20 nM; inhibition in vivo at 5 mg/kg [7]: 43%; Ki [8]: 1000 nM; IC50 [9]: 2.1 nM; IC50 [10]: 12 nM; IC50 [11]: 923 nM; IC50 [12]: 12 nM; IC50 [13]: 20 nM; IC50 [14]: 8 nM; IC50 [15]: 915 nM; IC50 [16]: 1190 nM; IC50 [17]: 417 nM; inhibition in vivo at 20 mg/kg [18]: 94%; inhibition in vivo at 10 mg/kg [19]: 75%; inhibition in vivo at 2.5 mg/kg [20]: 8%; bioavailability [3]: 28%; clearance [21]: 47 mL/min/kg; IC50 [22]: 451 nM

Source: ChEMBL document CHEMBL5113550, “Optimization of Pyrimidine Compounds as Potent JAK1 Inhibitors and the Discovery of R507 as a Clinical Candidate” (ACS Med Chem Lett, 2022)
